Experimental data as given in paper PMC5916221, “High-throughput identification of G protein-coupled receptor modulators through affinity mass spectrometry screening” (Chemical Science, 2018).
Where “and” joins values, the source holds several entries; their conditions need not be identical. Equal values may be shown once.

How the values were obtained:
5-HT2CR = molecular target: T1, 5-HT2CR (Homo sapiens, UniProt P28335); test: biochemical; set-up: CPM fluorescent dye thermal shift assay on purified receptor, Tm shift versus apo receptor; conditions: single replicate of two; for ΔTm (°C): 100 µM, binder
T1 construct: gene HTR2C
T1 sequence (P28335 1-458): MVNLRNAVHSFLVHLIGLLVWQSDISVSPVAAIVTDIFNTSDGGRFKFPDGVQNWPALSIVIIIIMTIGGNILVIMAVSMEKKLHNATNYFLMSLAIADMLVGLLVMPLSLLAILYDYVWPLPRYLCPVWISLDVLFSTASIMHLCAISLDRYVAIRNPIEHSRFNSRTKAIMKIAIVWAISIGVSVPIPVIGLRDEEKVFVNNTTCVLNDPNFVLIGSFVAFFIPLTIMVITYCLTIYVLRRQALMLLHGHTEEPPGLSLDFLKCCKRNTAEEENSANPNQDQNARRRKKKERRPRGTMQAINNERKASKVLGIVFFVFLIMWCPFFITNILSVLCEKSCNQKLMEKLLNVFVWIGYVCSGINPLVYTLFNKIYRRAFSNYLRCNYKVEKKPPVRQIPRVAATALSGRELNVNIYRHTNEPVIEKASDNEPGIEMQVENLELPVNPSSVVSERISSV
Procedure: The thermal shift assay using a CPM fluorescent dye (Sigma) was performed as described in the literature.[27] […] The protein sample was heated step-wise on a Rotor-Gene Thermo-optical Analyzer (QIAGEN Gmbh) from 25 °C to 95 °C. Upon temperature rise, the proteins unfolded and cysteine residues were exposed to form adducts with CPM, which were detected by fluorescence at 387/463 nm using an EnVision multilabel plate reader (PerkinElmer). From the normalized thermal stability curve, melting temperatures (Tm) were obtained by fitting the curve with a Boltzmann sigmoidal function using GraphPad Prism. Comparison of Tm for the apo receptor and receptor incubated with a compound gave rise to Tm shift (ΔTm) for the compound. Using stringent data processing criteria for compound annotation and hit selection (see ESI ^†), we identified a total of 23 initial hits from screening the 9 cocktails (Fig. 2, full data set in Table S1 ^†). Twelve were well characterized antagonists for 5-HT2CR or a closely-related subfamily member 5-HT2AR with a mean BI of 2.16 to 9.71 (full data set in Table S2 ^†). […] While their IC50 or Ki values from the ChEMBL database were all above 10 nM, 85% had IC50 or Ki > 100 nM towards 5-HT2CR. Therefore, the stringent BI cut-off defined for hit selection ensured identification of highest affinity ligands with a minimal false-positive rate. To verify the 11 initial hits with no documented binding to the 5-HT2 receptor family, a simple mixture was created by pooling and incubating them with the receptor-expressing membranes. Four hits were verified in this secondary affinity MS assay (Fig. 3a). Those that were invalidated could have resulted from compound misidentification or altered binding properties in the original complex mixtures. […] The radioligand competition assay verified potent antagonist binding of 3943 to all three 5-HT2 receptor subtypes in the nanomolar range, with stronger affinity to 5-HT2A/2BR than 5-HT2CR (Fig. 3c, S3b ^†). It was not surprising to identify a new antagonist against three 5-HT2 receptor subfamily members using our approach because of the high sequence homology and very similar ligand binding pockets among them.

[1] = molecular target: T2, glucagon-like peptide-1 receptor (GLP-1R) (Homo sapiens, UniProt P43220, DEL258-263); test: affinity MS on receptor-expressing membranes, binding index vs rhodopsin control
T2 construct: gene GLP1R; TMD residues 128–431 with intracellular loop 2 (258–263) replaced by rubredoxin, N-terminal BRIL
T2 sequence (P43220 128-257): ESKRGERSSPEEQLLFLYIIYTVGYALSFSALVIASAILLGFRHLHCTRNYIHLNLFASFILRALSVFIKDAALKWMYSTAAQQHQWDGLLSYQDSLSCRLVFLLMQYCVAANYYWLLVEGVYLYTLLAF
T2 sequence (P43220 264-431): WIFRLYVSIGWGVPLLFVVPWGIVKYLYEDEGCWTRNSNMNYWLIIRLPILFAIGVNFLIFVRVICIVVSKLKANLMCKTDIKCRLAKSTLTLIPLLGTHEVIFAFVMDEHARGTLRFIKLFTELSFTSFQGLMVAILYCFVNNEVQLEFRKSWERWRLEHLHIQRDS

Row | SMILES | ΔTm at 100 µM (5-HT2CR) [°C] | affinity MS on receptor-expressing membranes, binding index vs rhodopsin control [1] | ΔTm (°C) (5-HT2CR)
1 | CC1(C)CC([C@@H](Nc2ccc(-n3cnc(C(F)(F)F)c3)nc2)c2ccc(C(=O)NCCC(=O)O)cc2)C1 [PF06372222] |  | 16.66 binding index (ratio) | 
2 | CC(C)c1nc(CN(C)C(=O)N[C@H](C(=O)N[C@@H](Cc2ccccc2)C[C@H](O)[C@H](Cc2ccccc2)NC(=O)OCc2cncs2)C(C)C)cs1 [compound 462, Ritonavir] | 0.2 |  | 
3 | CS(=O)(=O)c1cccc(NC(=O)N(Cc2ccc(C(=O)Nc3nnn[nH]3)cc2)c2ccc(C3CCCCC3)cc2)c1 [NNC0640] |  | 3.31 binding index (ratio) | 

Continued, values first:

Row | ΔTm at 100 µM (5-HT2CR) [°C] | affinity MS on receptor-expressing membranes, binding index vs rhodopsin control [1] | ΔTm (°C) (5-HT2CR) | SMILES
4 | 2 |  |  | C[C@@H]1CN(c2c(F)c(F)c3c(=O)c(C(=O)O)cn(C4CC4)c3c2F)C[C@H](C)N1 [compound 1382, Orbifloxacin]
5 | 6.2 |  | 6.9 °C | C1=Cc2ccccc2C(=C2CCN(CCCCc3nn[nH]n3)CC2)c2ccccc21 [compound 3943, AT-56]
6 |  |  | -3.0 °C and -0.2 °C | O=C(NC1CCNCC1)c1n[nH]cc1NC(=O)c1c(Cl)cccc1Cl [compound 3931, AT 7519]
